These results are taken from ChEMBL document CHEMBL3045856, “Synthesis antimicrobial and anticancer activity of N-arylmethylidene-piperazine-1-carbothiohydrazide” (Med Chem Res, 2013).

Bounds are passed on as bounds.

Broadly, the IC50 is the point on the concentration scale where inhibition reaches its midpoint.

In test [1] the test system is HBL-100. The test can be described thus: Anticancer activity against Homo sapiens (human) HBL100 cells after 72 hr by MTT assay. Conditions: HBL-100, 72 h. In kind it is functional, cell-based. On the technique in general: Tetrazolium dyes change colour on reduction, which living cells bring about.
Test [2] concerns Candida albicans. The test can be described thus: Antimicrobial activity against Candida albicans assessed as growth inhibition after 24 hr by serial double dilution method. In kind it is functional, organism-based.
Test [3] has as its system Bacillus subtilis. The experiment in a line: Antimicrobial activity against Bacillus subtilis NCIM 2921 assessed as growth inhibition after 24 hr by serial double dilution method. Format: functional, organism-based. Conditions: NCIM 2921, 24 h.
For test [4], the system named is Aspergillus niger. The test can be described thus: Antimicrobial activity against Aspergillus niger assessed as growth inhibition after 24 hr by cup plate method. In kind it is functional, organism-based.
The test system of test [5] is Pseudomonas aeruginosa. The experiment in a line: Antimicrobial activity against Pseudomonas aeruginosa NCIM 2967 assessed as growth inhibition after 24 hr by serial double dilution method. Format: functional, organism-based. Conditions: NCIM 2967, 24 h.
Test [6] relates to HBL-100. The test can be described thus: Ratio of compound IC50 to methotrexate IC50 for Homo sapiens (human) HBL100 cells after 72 hr by MTT assay. In kind it is functional.
For test [7], the system named is Escherichia coli. The test can be described thus: Antimicrobial activity against Escherichia coli NCIM 2068 assessed as growth inhibition after 24 hr by serial double dilution method. Conditions: NCIM 2068, 24 h. Format: functional, organism-based.
For test [8], the system named is Vibrio cholerae. The test can be described thus: Antimicrobial activity against Vibrio cholerae assessed as growth inhibition after 24 hr by cup-plate method. Format: functional, organism-based.
Test [9] deals with Staphylococcus aureus. The experiment in a line: Antimicrobial activity against Staphylococcus aureus NCIM 2079 assessed as growth inhibition after 24 hr by serial double dilution method. In kind it is functional, organism-based. Conditions: NCIM 2079, 24 h.
Test [10] concerns HL-60. The test can be described thus: Anticancer activity against Homo sapiens (human) HL60 cells after 48 hr by CC108 microcell counter analysis. In kind it is functional, cell-based. The note with it: HL-60, 48 h.

Take `Oc1ccc(/C=N/NC(=S)N2CCNCC2)cc1`: the 50% inhibitory concentration (IC50) amounted to 0.18 µM in test [1]; 1.94 µM in [2] (read-out: IC50); 1.62 µM in test [3] (read-out: IC50); 1.97 µM in [4]; 1.63 µM in test [5]; 1.64 µM in test [7]. For the same compound, the half-maximal inhibitory concentration (IC50) amounted to 1.66 µM in test [8], 1.7 µM in [9] and 50 µM in test [10]. In test [6], the “Ratio IC50” value was 4.5.
Consider `C/C(=N\NC(=S)N1CCNCC1)c1ccc(O)cc1`, for which the IC50 in [1] was 0.54 µM; in test [2] (read-out: IC50), 2.56 µM; in test [3] (read-out: IC50) it was 3.49 µM; in test [4] it was 3.55 µM; in test [5] it was 3.51 µM; in test [7], 3.48 µM. In addition, the values for the half-maximal inhibitory concentration (IC50) in [8], in [9] and in test [10] were 1.59 µM, 1.58 µM and 60 µM, respectively.
For the compound `C/C(=N\NC(=S)N1CCNCC1)c1cccc([N+](=O)[O-])c1`, the half-inhibitory concentration (IC50) was determined as 0.99 µM in [1]; 2 µM in test [2] (read-out: IC50); 0.32 µM in [3] (read-out: IC50); 1.56 µM in test [4]; 0.6 µM in test [5]; 0.57 µM in test [7]. Moreover, the IC50 stood at 0.86 µM in test [8], 0.86 µM in [9] and 62 µM in test [10].
On to `COc1ccc(/C=N/NC(=S)N2CCNCC2)cc1`, for which the concentration for half-maximal inhibition (IC50) in [1] was found to be 1.62 µM; in test [2] (read-out: IC50) it was 2.15 µM; in test [3] (read-out: IC50), 0.66 µM; in [4] it was 2.09 µM; in test [5], 1.57 µM; in test [7] it was 1.59 µM. In addition, the IC50 in [8] was found to be 1.53 µM; in test [9] it was 0.79 µM.
As to `S=C(N/N=C/c1ccc(Cl)cc1)N1CCNCC1`, the IC50 worked out at 1.6 µM in test [1]; 1.85 µM in [2] (read-out: IC50); 0.13 µM in test [3] (read-out: IC50); 2.14 µM in test [4]; 0.6 µM in test [5]; 1.52 µM in [7]. The values for the IC50 in test [8], in [9] and in test [10] were 0.6 µM, 0.54 µM and 69 µM, respectively.
Turning to `C/C(=N/NC(=S)N1CCNCC1)c1ccccc1`, the IC50 amounted to 0.29 µM in test [1]; 3.75 µM in test [2] (read-out: IC50); 1.78 µM in test [3] (read-out: IC50); 3.76 µM in test [4]; 2.11 µM in [5]; 1.76 µM in test [7]. Also, the IC50 came to 1.17 µM in [8] and 2.07 µM in test [9].
For `S=C(N/N=C/c1ccccc1)N1CCNCC1`, the half-inhibitory concentration (IC50) in [1] is 2.41 µM; in test [2] (read-out: IC50), 1.85 µM; in test [3] (read-out: IC50), 0.93 µM; in test [4] it was 2.21 µM; in [5], 1.97 µM; in test [7], 3.91 µM. The figures for the half-maximal inhibitory concentration (IC50) in test [8], in [9] and in test [10] were 2.23 µM, 1.36 µM and 63 µM, respectively.
In the case of `C/C(=N\NC(=S)N1CCNCC1)c1ccc(Cl)cc1`, the half-maximal inhibitory concentration (IC50) is 0.26 µM in test [1]; 3.37 µM in test [2] (read-out: IC50); 0.98 µM in test [3] (read-out: IC50); 3.32 µM in test [4]; 0.71 µM in test [5]; 0.88 µM in [7]. Moreover, the results for the half-inhibitory concentration (IC50) in test [8] and in [9] were 0.78 µM and 1.04 µM, respectively.
On to `Cc1ccc(/C=N/NC(=S)N2CCNCC2)cc1`, for which the concentration for half-maximal inhibition (IC50) in [1] amounted to 0.8 µM; in [2] (read-out: IC50), 3.72 µM; in [3] (read-out: IC50), 1.7 µM; in test [4], 3.79 µM; in test [5] it was 1.7 µM; in [7], 1.74 µM. Moreover, the IC50 in test [8] was 3.57 µM; in [9], 1.66 µM; in [10], 70 µM.
On to `S=C(NN=C(c1ccccc1)c1ccccc1)N1CCNCC1`, for which the IC50 in test [1] was 0.34 µM; in [2] (read-out: IC50), 1.47 µM; in test [3] (read-out: IC50), 1.38 µM; in test [4], 1.62 µM; in test [5], 1.44 µM; in test [7] it was 3.03 µM. Further, the figures for the IC50 in test [8] and in test [9] were 1.38 µM and 1.33 µM, respectively.
Consider `O=C(O)c1cn(C2CC2)c2cc(N3CCNCC3)c(F)cc2c1=O` [CIPROFLOXACIN], for which the IC50 in test [3] is 4.7 µM; in [5] it was 0.05 µM; in [8], 0.2 µM; in [9], 1.2 µM.
As to `OC(Cn1cncn1)(Cn1cncn1)c1ccc(F)cc1F` [FLUCONAZOLE], the IC50 in test [2] was 0.98 µM; in test [4], more than 10 µM.
For `CN(Cc1cnc2nc(N)nc(N)c2n1)c1ccc(C(=O)N[C@@H](CCC(=O)O)C(=O)O)cc1` [METHOTREXATE], the IC50 in [1] came to 0.04 µM.
